Common to all, as to format: cell-based
Experiment [1] addresses T1, GLP-1 receptor (Homo sapiens, UniProt P43220). Description: HitHunter cAMP assay, GLP-1 receptor. The conditions noted are these: for EC50: CHO cells stably expressing human GLP-1 receptor, cAMP accumulation, 30 min, read-out: EC50 GLP-1R; for Emax: CHO cells, cAMP, normalized to maximum signal from GLP-1 (high) and DMSO (low), read-out: Emax GLP-1R. In general terms: Cyclic AMP is a second messenger, typically raised through Gs and lowered through Gi signalling.
Description: CAMP accumulation was measured in Chinese hamster ovary (CHO) cells stably expressing the human GLP-1 receptor or GIP receptor using the HitHunter CAMP Assay for Small Molecules Kit (Eurofins). Briefly, cells were grown in Ham's F12 Nutrient Mix with 10% FBS and lifted with Cell dissociation buffer, Enzyme free, PBS based (ThermoFisher). Cells were pelleted and resuspended in Hank's buffered saline solution with 10 mM Hepes and 625 μM 3-isobutyl-1-methylxanthine. The antibody reagent was then added to cells at a 1:2 ratio and 5 μL of mixture was seeded in 384-well small volume white assay plates, at 10,000 cells/well. Cells were then treated with 50 nl compound in DMSO using an ECHO 550 acoustic dispenser (Labcyte) in a 20-point dose response format in triplicate for 30 min. Cells were the lysed and detection reagents added according to the manufacturer's protocol. After overnight incubation, luminescence was measured using a Perkin Elmer Envision plate reader. Raw data was normalized to the maximum signal from GLP-1 or GIP (high) and DMSO (low). Dose response curves were analyzed using GraphPad Prism 9.0.

Experiment [2] deals with T2, GIP receptor (Homo sapiens, UniProt P48546).
T2 sequence (P48546 22-466): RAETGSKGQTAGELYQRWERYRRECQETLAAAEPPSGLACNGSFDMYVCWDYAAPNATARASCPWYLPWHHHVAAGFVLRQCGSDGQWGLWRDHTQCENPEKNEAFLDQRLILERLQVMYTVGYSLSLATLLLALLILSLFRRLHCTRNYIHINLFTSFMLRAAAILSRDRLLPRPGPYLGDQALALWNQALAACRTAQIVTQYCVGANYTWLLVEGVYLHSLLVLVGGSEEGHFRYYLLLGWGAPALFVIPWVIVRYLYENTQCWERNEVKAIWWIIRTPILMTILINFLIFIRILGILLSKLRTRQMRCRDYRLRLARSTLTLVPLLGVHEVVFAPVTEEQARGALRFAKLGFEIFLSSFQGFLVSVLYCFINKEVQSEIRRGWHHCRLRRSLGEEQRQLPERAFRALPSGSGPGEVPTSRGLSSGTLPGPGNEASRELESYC
Description: HitHunter cAMP assay, GIP receptor. The settings on record: for EC50: CHO cells stably expressing GIP receptor, cAMP accumulation, 30 min, read-out: EC50 GIP-1R; for Emax: CHO cells, cAMP, normalized to maximum signal from GIP (high) and DMSO (low), read-out: Emax GIP-1R.

The target in experiment [3] is T1, GLP-1 receptor. Description: PathHunter β-arrestin assay, GLP-1 receptor. The conditions noted are these: β-arrestin-2 recruitment, PathHunter CHO-K1 GLP1R β-Arrestin Cell Line, 90 min at 37° C.; normalized to GLP-1; read-out: GLP-1R β Arrestin EC50. Further details: host or cells: PathHunter CHO-K1 GLP1R β-Arrestin Cell Line. Background: Activated receptors often draw arrestin, which recruitment assays turn into a signal.

In experiment [4] the target is T2, GIP receptor. Description: PathHunter β-arrestin assay, GIP receptor. Also noted: host or cells: PathHunter CHO-K1 GIPR β-Arrestin Cell Line. The conditions noted are these: β-arrestin-2 recruitment, PathHunter CHO-K1 GIPR β-Arrestin Cell Line, 90 min at 37° C.; normalized to GIP; read-out: GIPR β Arrestin EC50.

*1 amine or outer side, *2 acyl side, *3 side chain or, on linkers, in order; H or OH if unused. Where a SMILES comes first, the peptide text is derived from it. Side-chain parts run from the residue outwards. [ ]: non-standard residue; d: D form. The star is where a group is joined. Isobutyryl(2-(3-CN-5-F-Ph)) = CC(C)(C(=O)*)c1cc(F)cc(C#N)c1; C20 diacid = O=C(O)CCCCCCCCCCCCCCCCCCC(=O)*; γGlu = O=C(O)[C@H](CCC(=O)[*:2])N[*:1]; X44 = COc1ccc(C(C)(C)C(=O)*)cc1; X41 = C[C@H](C(=O)*)c1ccccc1; AEEA = NCCOCCOCC(=O)O; Aib = CC(C)(N)C(=O)O; GABA = NCCCC(=O)O; βAla = NCCC(=O)O

The term EC50 denotes the concentration giving half of the maximal effect. By Emax is commonly meant the maximal effect, on the per cent scale that the assay sets.

T1 sequence (P43220 24-463): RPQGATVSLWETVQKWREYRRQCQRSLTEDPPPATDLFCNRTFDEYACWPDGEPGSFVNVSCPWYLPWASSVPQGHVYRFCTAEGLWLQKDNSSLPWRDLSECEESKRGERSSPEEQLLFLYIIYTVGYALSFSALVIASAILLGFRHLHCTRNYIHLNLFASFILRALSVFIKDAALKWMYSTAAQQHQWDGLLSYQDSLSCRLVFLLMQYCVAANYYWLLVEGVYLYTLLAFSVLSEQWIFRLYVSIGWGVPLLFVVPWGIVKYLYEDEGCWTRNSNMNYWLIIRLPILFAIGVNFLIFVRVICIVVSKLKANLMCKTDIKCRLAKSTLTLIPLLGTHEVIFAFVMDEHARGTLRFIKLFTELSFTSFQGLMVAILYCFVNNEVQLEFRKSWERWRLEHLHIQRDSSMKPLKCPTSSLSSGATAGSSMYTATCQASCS

As for `CC[C@H](C)[C@H](NC(=O)[C@H](CC(C)C)NC(=O)[C@H](Cc1c[nH]c2ccccc12)NC(=O)[C@H](CCC(N)=O)NC(=O)[C@@H](NC(=O)[C@H](Cc1ccccc1)NC(=O)[C@H](C)NC(=O)[C@H](CCCCNC(=O)COCCOCCNC(=O)COCCOCCNC(=O)CC[C@H](NC(=O)CCCCCCCCCCCCCCCCCCC(=O)O)C(=O)O)NC(=O)[C@H](CCC(N)=O)NC(=O)[C@H](C)NC(=O)[C@@H](NC(=O)[C@H](CCCCN)NC(=O)[C@H](CC(=O)O)NC(=O)[C@H](CC(C)C)NC(=O)C(C)(C)NC(=O)[C@@H](NC(=O)[C@H](CO)NC(=O)[C@H](Cc1ccc(O)cc1)NC(=O)[C@H](CC(=O)O)NC(=O)[C@H](CO)NC(=O)[C@@H](NC(=O)[C@H](Cc1ccccc1)NC(=O)[C@@H](NC(=O)CNC(=O)[C@H](CCC(=O)O)NC(=O)CCNC(=O)[C@@H](C)c1ccccc1)[C@@H](C)O)[C@@H](C)O)[C@@H](C)CC)[C@@H](C)CC)C(C)C)C(=O)N[C@@H](C)C(=O)NCC(=O)NCC(=O)N1CCC[C@H]1C(=O)N[C@@H](CO)C(=O)N[C@@H](CO)C(=O)NCC(=O)N[C@@H](C)C(=O)N1CCC[C@H]1C(=O)N1CCC[C@H]1C(=O)N1CCC[C@H]1C(=O)N[C@@H](CO)C(N)=O` [Compound 211] ({X41-βAla}-EGTFTSDYSI[Aib]LDKIAQK([AEEA-AEEA-γGlu-C20 diacid])AFVQWLIAGGPSSGAPPPS-NH2), the EC50 at GLP-1 receptor [1] was 0.1 to 1 nM; on GIP receptor [2], 10 to 100 nM; at GLP-1 receptor [3] it was greater than 1000 nM; on GIP receptor [4], greater than 1000 nM. The Emax turned out to be 107% at GLP-1 receptor [1] and 103% at GIP receptor [2].

As for `CC[C@H](C)[C@H](NC(=O)[C@H](CO)NC(=O)[C@H](Cc1ccc(O)cc1)NC(=O)[C@H](CC(=O)O)NC(=O)[C@H](CO)NC(=O)[C@@H](NC(=O)[C@H](Cc1ccccc1)NC(=O)[C@@H](NC(=O)CNC(=O)[C@H](CCC(=O)O)NC(=O)CCNC(=O)C(C)(C)c1cc(F)cc(C#N)c1)[C@@H](C)O)[C@@H](C)O)C(=O)N[C@@H](Cc1ccc(O)cc1)C(=O)N[C@@H](CC(C)C)C(=O)N[C@@H](CC(=O)O)C(=O)N[C@@H](CCCCN)C(=O)N[C@@H](CCC(N)=O)C(=O)N[C@@H](C)C(=O)N[C@@H](C)C(=O)NC(C)(C)C(=O)N[C@@H](CCC(=O)O)C(=O)N[C@@H](Cc1ccccc1)C(=O)N[C@H](C(=O)N[C@@H](CC(N)=O)C(=O)N[C@@H](Cc1c[nH]c2ccccc12)C(=O)N[C@@H](CC(C)C)C(=O)N[C@@H](CC(C)C)C(=O)N[C@@H](C)C(=O)NCC(=O)NCC(=O)N1CCC[C@H]1C(=O)N[C@@H](CO)C(=O)N[C@@H](CO)C(=O)NCC(=O)N[C@@H](C)C(=O)N1CCC[C@H]1C(=O)N1CCC[C@H]1C(=O)N1CCC[C@H]1C(=O)N[C@@H](CO)C(=O)N[C@@H](CCCCNC(=O)COCCOCCNC(=O)COCCOCCNC(=O)CC[C@H](NC(=O)CCCCCCCCCCCCCCCCCCC(=O)O)C(=O)O)C(N)=O)C(C)C` [Compound 187], the EC50 was 1 to 10 nM on GLP-1 receptor [1], 10 to 100 nM at GIP receptor [2], greater than 1000 nM on GLP-1 receptor [3] and greater than 1000 nM at GIP receptor [4]. In addition, the Emax on GLP-1 receptor [1] and on GIP receptor [2] was 95% each time.

For `CC[C@H](C)[C@H](NC(=O)[C@H](CO)NC(=O)[C@H](Cc1ccc(O)cc1)NC(=O)[C@H](CC(=O)O)NC(=O)[C@H](CO)NC(=O)[C@@H](NC(=O)[C@H](Cc1ccccc1)NC(=O)[C@@H](NC(=O)CNC(=O)[C@H](CCC(=O)O)NC(=O)CCNC(=O)[C@]1(c2ccccc2)CNC(=O)C1)[C@@H](C)O)[C@@H](C)O)C(=O)N[C@@H](Cc1ccc(O)cc1)C(=O)N[C@@H](CC(C)C)C(=O)N[C@@H](CC(=O)O)C(=O)N[C@@H](CCCCN)C(=O)N[C@@H](CCC(N)=O)C(=O)N[C@@H](C)C(=O)N[C@@H](C)C(=O)N[C@@H](CCCCNC(=O)COCCOCCNC(=O)COCCOCCNC(=O)CC[C@H](NC(=O)CCCCCCCCCCCCCCCCCCC(=O)O)C(=O)O)C(=O)N[C@@H](CCC(=O)O)C(=O)N[C@@H](Cc1ccccc1)C(=O)N[C@H](C(=O)N[C@@H](CC(N)=O)C(=O)N[C@@H](Cc1c[nH]c2ccccc12)C(=O)N[C@@H](CC(C)C)C(=O)N[C@@H](CC(C)C)C(=O)N[C@@H](C)C(=O)NCC(=O)NCC(=O)N1CCC[C@H]1C(=O)N[C@@H](CO)C(=O)N[C@@H](CO)C(=O)NCC(=O)N[C@@H](C)C(=O)N1CCC[C@H]1C(=O)N1CCC[C@H]1C(=O)N1CCC[C@H]1C(=O)N[C@@H](CO)C(N)=O)C(C)C` (single isomer, unassigned) [Compound 128], the concentration giving a half-maximal response (EC50) is 1 to 10 nM at GLP-1 receptor [1], 10 to 100 nM on GIP receptor [2], greater than 1000 nM at GLP-1 receptor [3] and greater than 1000 nM on GIP receptor [4]. Moreover, the Emax on GLP-1 receptor [1] is 99%; on GIP receptor [2], 101%.

As to `CC[C@H](C)[C@H](NC(=O)[C@H](CC(C)C)NC(=O)[C@H](Cc1c[nH]c2ccccc12)NC(=O)[C@H](CCC(N)=O)NC(=O)[C@@H](NC(=O)[C@H](Cc1ccccc1)NC(=O)[C@H](C)NC(=O)[C@H](CCCCNC(=O)COCCOCCNC(=O)COCCOCCNC(=O)CC[C@H](NC(=O)CCCCCCCCCCCCCCCCCCC(=O)O)C(=O)O)NC(=O)[C@H](CCC(N)=O)NC(=O)[C@H](C)NC(=O)[C@@H](NC(=O)[C@H](CCCCN)NC(=O)[C@H](CC(=O)O)NC(=O)[C@H](CC(C)C)NC(=O)C(C)(C)NC(=O)[C@@H](NC(=O)[C@H](CO)NC(=O)[C@H](Cc1ccc(O)cc1)NC(=O)[C@H](CC(=O)O)NC(=O)[C@H](CO)NC(=O)[C@@H](NC(=O)[C@H](Cc1ccccc1)NC(=O)[C@@H](NC(=O)CNC(=O)[C@@H](CC(=O)O)NC(=O)CCCNC(=O)C(C)(C)c1cc(F)cc(C#N)c1)[C@@H](C)O)[C@@H](C)O)[C@@H](C)CC)[C@@H](C)CC)C(C)C)C(=O)N[C@@H](C)C(=O)NCC(=O)NCC(=O)N1CCC[C@H]1C(=O)N[C@@H](CO)C(=O)N[C@@H](CO)C(=O)NCC(=O)N[C@@H](C)C(=O)N1CCC[C@H]1C(=O)N1CCC[C@H]1C(=O)N1CCC[C@H]1C(=O)N[C@@H](CO)C(N)=O` [Compound 120] ({Isobutyryl(2-(3-CN-5-F-Ph))-GABA}-[dD]GTFTSDYSI[Aib]LDKIAQK([AEEA-AEEA-γGlu-C20 diacid])AFVQWLIAGGPSSGAPPPS-NH2), the EC50 is 10 to 100 nM at GLP-1 receptor [1], 100 to 1000 nM on GIP receptor [2], greater than 1000 nM on GLP-1 receptor [3] and greater than 1000 nM on GIP receptor [4]. Further, the results for the Emax on GLP-1 receptor [1] and at GIP receptor [2] were 104% and 40%, respectively.

Consider `CC[C@H](C)[C@H](NC(=O)[C@H](CC(C)C)NC(=O)[C@H](Cc1c[nH]c2ccccc12)NC(=O)[C@H](CCC(N)=O)NC(=O)[C@@H](NC(=O)[C@H](Cc1ccccc1)NC(=O)[C@H](C)NC(=O)[C@H](CCCCNC(=O)COCCOCCNC(=O)COCCOCCNC(=O)CC[C@H](NC(=O)CCCCCCCCCCCCCCCCCCC(=O)O)C(=O)O)NC(=O)[C@H](CCC(N)=O)NC(=O)[C@H](C)NC(=O)[C@@H](NC(=O)[C@H](CCCCN)NC(=O)[C@H](CC(=O)O)NC(=O)[C@H](CC(C)C)NC(=O)C(C)(C)NC(=O)[C@@H](NC(=O)[C@H](CO)NC(=O)[C@H](Cc1ccc(O)cc1)NC(=O)[C@H](CC(=O)O)NC(=O)[C@H](CO)NC(=O)[C@@H](NC(=O)[C@H](Cc1ccccc1)NC(=O)[C@@H](NC(=O)CNC(=O)[C@H](CCC(=O)O)NC(=O)CCNC(=O)C(C)(C)c1ccc(OC)cc1)[C@@H](C)O)[C@@H](C)O)[C@@H](C)CC)[C@@H](C)CC)C(C)C)C(=O)N[C@@H](C)C(=O)NCC(=O)NCC(=O)N1CCC[C@H]1C(=O)N[C@@H](CO)C(=O)N[C@@H](CO)C(=O)NCC(=O)N[C@@H](C)C(=O)N1CCC[C@H]1C(=O)N1CCC[C@H]1C(=O)N1CCC[C@H]1C(=O)N[C@@H](CO)C(N)=O` [Compound 203] ({X44-βAla}-EGTFTSDYSI[Aib]LDKIAQK([AEEA-AEEA-γGlu-C20 diacid])AFVQWLIAGGPSSGAPPPS-NH2), for which the EC50 is 0.1 to 1 nM at GLP-1 receptor [1], 1 to 10 nM on GIP receptor [2], greater than 1000 nM on GLP-1 receptor [3] and less than 1000 nM on GIP receptor [4]. The Emax at GLP-1 receptor [1] and at GIP receptor [2] was 103% in each case.

For the origin of these results see patent US12281149B2, “Modulators of G-protein coupled receptors” (priority 2021, dated 2025).
